In brackets after ≈: the same amount, converted by molar mass. Activity calls are given as the source filed them. The calls are words filed in the database; no cut-off is given here.
Experiments:
[1] = system: Bacillus subtilis; experiment: Antimicrobial activity against Bacillus subtilis by at 20 ug/disk by disk diffusion method; type: functional, organism-based
[2] = system: P388; experiment: Cytotoxicity against mouse P388 cells; type: functional, cell-based
[3] = system: Candida albicans; experiment: Antimicrobial activity against Candida albicans ATCC 44506 by broth microdilution method; type: functional
[4] = system: Aspergillus nidulans; experiment: Antimicrobial activity against Aspergillus nidulans by at 20 ug/disk by disk diffusion method; type: functional, organism-based
[5] = system: Escherichia coli; experiment: Antimicrobial activity against Escherichia coli by at 20 ug/disk by disk diffusion method; type: functional, organism-based

Compound: CC/C=C/C(CC)CC(C)CC1(CC)C=C(CC)C(CC(=O)O)OO1 (stereo not given)
- Activity [1]: Active
- IC50 [2]: 0.3 µg/mL (≈ 0.851 µM)
- MIC [3]: 1.6 µg/mL (≈ 4.54 µM)
- Activity [4]: Active
- Activity [5]: inactive

Compound: CC/C=C/C(CC)CC(C)CC1(CC)C=C(CC)C(CC(=O)OC)OO1 (stereo not given)
- Activity [1]: inactive
- IC50 [2]: 0.9 µg/mL (≈ 2.46 µM)
- MIC [3]: > 50 µg/mL
- Activity [4]: inactive
- Activity [5]: inactive

Compound: CCCCC(CC)CC(C)CC1(CC)C=C(CC)C(CC(=O)O)OO1 (stereo not given)
- Activity [1]: Active
- IC50 [2]: 0.2 µg/mL (≈ 0.564 µM)
- MIC [3]: 1.6 µg/mL (≈ 4.51 µM)
- Activity [4]: Active
- Activity [5]: inactive

Compound: CCCCC(CC)CC(C)CC1(CC)C=C(CC)C(CC(=O)OC)OO1 (stereo not given)
- Activity [1]: inactive
- IC50 [2]: 0.2 µg/mL (≈ 0.543 µM)
- MIC [3]: > 50 µg/mL
- Activity [4]: inactive
- Activity [5]: inactive

Reference: ChEMBL document CHEMBL1158905, “Two New Bioactive Cyclic Peroxides from the Marine Sponge Plakortis angulospiculatus” (J Nat Prod, 1990)
